Results: US6613718B2, “Aryl ether derivatives and processes for their preparation and herbicidal and desiccant compositions containing them” (Ishihara Sangyo Kaisha, Ltd., priority 2001, dated 2003)

Legend:
Format in all cases: in vivo
[1] = system: sicklepod (Cassia obtusifolia, CASOB); assay: Post-emerge greenhouse herbicide activity screening, phytotoxicity rating
Description: (§1) A standard greenhouse herbicide activity screening system was used to evaluate the herbicidal efficacy and crop safety of these test compounds. Seven broadleaf weed species including redroot pigweed (Amaranthus retroflexus, AMARE), velvetleaf (Abutilon theophrasti, ABUTH), sicklepod (Cassia obtusifolia, CASOB), ivyleaf morningglory (Ipomoea hederacea, IPOHE), lambsquarters (Chenopodium album, CHEAL), common ragweed (Ambrosia artemisiifolia L., AMBEL), and cocklebur (Xanthium strumarium, XANST) were used as test species. Four grass weed species including green foxtail (Setaria viridis, SETVI), barnyardgrass (Echinochloa crus-galli, ECHCG), johnsongrass (Sorghum halepense, SORHA), and large crabgrass (Digitaria sanguinalis, DIGSA) were also used. In addition, three crop species, field corn (Zea mays L., var. Dekalb 535, CORN), soybean (Glycine max L., var. Pella 86, SOY), and upland rice (Oryza sp., var.Tebonnet, RICE) were included.
(§2) All plants were grown in 10 cm square plastic pots which were filled with a sandy loam soil mix. For pre-emerge tests, seeds were planted one day prior to application of the test compounds. For post-emerge tests, seeds were planted 8-21 days prior to the test to allow emergence and good foliage development prior to application of the test substances. At the time of the post-emerge application, plants of all species were usually at the 2-3 leaf stage of development.
(§3) All test compounds were dissolved in acetone and applied to the test units in a volume of 187 1/ha. Test materials were applied at rates ranging from 15 g ai/ha to 1000 g ai/ha using a track sprayer equipped with a TJ8001E even flow flat fan spray nozzle. Plants were arranged on a shelf so that the top of the canopy (post-emerge) or top of the soil surface (pre-emerge) was 40-45 cm below the nozzle. Pressurized air was used to force the test solution through the nozzle as it was mechanically advanced (via electrically driven chain drive) over the top of all test plants/pots. This application simulates a typical commercial field herbicide application.
(§4) In the post-emerge test, a commercial non-ionic surfactant was also included (0.25% v/v) to enhance wetting of the leaf surfaces of target plants. Immediately after application, test units of the pre-emerge applications were watered at the soil surface to incorporate the test materials. Subsequently, these test units were bottom-watered. Post-emerge test units were always bottom-watered.
(§5) At 14 days after application of the test materials, phytotoxicity ratings were recorded. A rating scale of 0-100 was used as previously described in Research Methods in Weed Science, 2nd edition, B. Truelove, Ed., Southern Weed Science Society, Auburn University, Auburn, Ala., 1977. Briefly, “0” corresponds to no damage and “100” corresponds to complete death of all plants in the test unit. This scale was used both to determine efficacy against weed species and damage to crop species. Herbicide activity data for various compounds of this invention, which are shown by compound No. in Tables I-VI, are shown in Tables VIII-IX.

[2] = system: ivyleaf morningglory (Ipomoea hederacea, IPOHE); assay: as above; conditions: 14 days after application
Description: as §1, §2, §3, §4, §5

[3] = system: barnyardgrass (Echinochloa crus-galli, ECHCG); assay: as above; conditions: 14 days after application
Description: as §1, §2, §3, §4, §5

[4] = system: redroot pigweed (Amaranthus retroflexus, AMARE); assay: as above
Description: as §1, §2, §3, §4, §5

[5] = system: large crabgrass (Digitaria sanguinalis, DIGSA); assay: as above; conditions: 14 days after application
Description: as §1, §2, §3, §4, §5

[6] = system: velvetleaf (Abutilon theophrasti, ABUTH); assay: as above; conditions: 14 days after application
Description: as §1, §2, §3, §4, §5

[7] = system: lambsquarters (Chenopodium album, CHEAL); assay: as above
Description: as §1, §2, §3, §4, §5

[8] = system: johnsongrass (Sorghum halepense, SORHA); assay: as above; conditions: 14 days after application
Description: as §1, §2, §3, §4, §5

[9] = system: green foxtail (Setaria viridis, SETVI); assay: as above
Description: as §1, §2, §3, §4, §5

[10] = system: common ragweed (Ambrosia artemisiifolia L., AMBEL); assay: as above
Description: as §1, §2, §3, §4, §5

[11] = system: field corn (Zea mays L., var. Dekalb 535, CORN); assay: Post-emerge greenhouse screening, crop safety / corn selectivity (phytotoxicity rating); conditions: 14 days after application
Description: as §1, §2, §3, §4, §5

[12] = system: upland rice (Oryza sp., var.Tebonnet, RICE); assay: Post-emerge greenhouse screening, crop safety (phytotoxicity rating); conditions: 14 days after application
Description: as §1, §2, §3, §4, §5

[13] = system: soybean (Glycine max L., var. Pella 86, SOY); assay: as above; conditions: 14 days after application
Description: as §1, §2, §3, §4, §5

[14] = system: upland rice (Oryza sp., var.Tebonnet, RICE); assay: Pre-emerge greenhouse screening, crop safety (phytotoxicity rating); conditions: 14 days after application
Description: as §1, §2, §3, §4, §5

[15] = system: field corn (Zea mays L., var. Dekalb 535, CORN); assay: as above; conditions: 14 days after application
Description: as §1, §2, §3, §4, §5

[16] = system: soybean (Glycine max L., var. Pella 86, SOY); assay: as above; conditions: 14 days after application
Description: as §1, §2, §3, §4, §5

[17] = system: sicklepod (Cassia obtusifolia, CASOB); assay: Pre-emerge greenhouse herbicide activity screening, phytotoxicity rating; conditions: 14 days after application
Description: as §1, §2, §3, §4, §5

[18] = system: ivyleaf morningglory (Ipomoea hederacea, IPOHE); assay: as above; conditions: 14 days after application
Description: as §1, §2, §3, §4, §5

[19] = system: barnyardgrass (Echinochloa crus-galli, ECHCG); assay: as above; conditions: 14 days after application
Description: as §1, §2, §3, §4, §5

[20] = system: redroot pigweed (Amaranthus retroflexus, AMARE); assay: as above; conditions: 14 days after application
Description: as §1, §2, §3, §4, §5

[21] = system: large crabgrass (Digitaria sanguinalis, DIGSA); assay: as above; conditions: 14 days after application
Description: as §1, §2, §3, §4, §5

[22] = system: velvetleaf (Abutilon theophrasti, ABUTH); assay: as above; conditions: 14 days after application
Description: as §1, §2, §3, §4, §5

[23] = system: lambsquarters (Chenopodium album, CHEAL); assay: as above; conditions: 14 days after application
Description: as §1, §2, §3, §4, §5

[24] = system: johnsongrass (Sorghum halepense, SORHA); assay: as above; conditions: 14 days after application
Description: as §1, §2, §3, §4, §5

[25] = system: green foxtail (Setaria viridis, SETVI); assay: as above; conditions: 14 days after application
Description: as §1, §2, §3, §4, §5

[26] = system: common ragweed (Ambrosia artemisiifolia L., AMBEL); assay: as above; conditions: 14 days after application
Description: as §1, §2, §3, §4, §5

[27] = 125 g ai/ha, 14 days after application
[28] = 250 g ai/ha, 14 days after application

SMILES: Cn1c(=S)n(C)c(=O)n(-c2cc(Oc3ncccn3)c(Cl)cc2F)c1=O [Compound 2-1, 3-[4-Chloro-2-fluoro-5-(2-pyrimidinyloxy)phenyl]-5,6-dihydro-1,5-dimethyl-6-thioxo-1,3,5-triazine-2,4(1H,3H)-dione]
- CASOB phytotoxicity rating (0-100 scale) ([1]; 31.3 g ai/ha): 60
- CASOB phytotoxicity rating (0-100 scale) ([1]; 62.5 g ai/ha): 60
- CASOB phytotoxicity rating (0-100 scale) [1, 27]: 65
- CASOB phytotoxicity rating (0-100 scale) [1, 28]: 75
- IPOHE phytotoxicity rating (0-100 scale) ([2]; 125 g ai/ha): 80
- IPOHE phytotoxicity rating (0-100 scale) ([2]; 250 g ai/ha): 99
- ECHCG phytotoxicity rating (0-100 scale) ([3]; 125 g ai/ha): 50
- ECHCG phytotoxicity rating (0-100 scale) ([3]; 250 g ai/ha): 80
- AMARE phytotoxicity rating (0-100 scale) ([4]; 31.3 g ai/ha): 100
- AMARE phytotoxicity rating (0-100 scale) ([4]; 62.5 g ai/ha): 100
- AMARE phytotoxicity rating (0-100 scale) [4, 27]: 100
- AMARE phytotoxicity rating (0-100 scale) [4, 28]: 100
- DIGSA phytotoxicity rating (0-100 scale) ([5]; 125 g ai/ha): 55
- DIGSA phytotoxicity rating (0-100 scale) ([5]; 250 g ai/ha): 55
- ABUTH phytotoxicity rating (0-100 scale) ([6]; 125 g ai/ha): 100
- ABUTH phytotoxicity rating (0-100 scale) ([6]; 250 g ai/ha): 100
- CHEAL phytotoxicity rating (0-100 scale) ([7]; 31.3 g ai/ha): 100
- CHEAL phytotoxicity rating (0-100 scale) ([7]; 62.5 g ai/ha): 100
- CHEAL phytotoxicity rating (0-100 scale) [7, 27]: 100
- CHEAL phytotoxicity rating (0-100 scale) [7, 28]: 100
- SORHA phytotoxicity rating (0-100 scale) ([8]; 125 g ai/ha): 60
- SORHA phytotoxicity rating (0-100 scale) ([8]; 250 g ai/ha): 70
- SETVI phytotoxicity rating (0-100 scale) ([9]; 31.3 g ai/ha): 0
- SETVI phytotoxicity rating (0-100 scale) ([9]; 62.5 g ai/ha): 60
- SETVI phytotoxicity rating (0-100 scale) [9, 27]: 70
- SETVI phytotoxicity rating (0-100 scale) [9, 28]: 80
- AMBEL phytotoxicity rating (0-100 scale) ([10]; 31.3 g ai/ha): 50
- AMBEL phytotoxicity rating (0-100 scale) ([10]; 62.5 g ai/ha): 50
- AMBEL phytotoxicity rating (0-100 scale) [10, 27]: 60
- AMBEL phytotoxicity rating (0-100 scale) [10, 28]: 65
- CORN crop damage, phytotoxicity rating (0-100 scale) ([11]; 125 g ai/ha): 0
- CORN crop damage, phytotoxicity rating (0-100 scale) ([11]; 250 g ai/ha): 5
- RICE crop damage, phytotoxicity rating (0-100 scale) ([12]; 125 g ai/ha): 15
- RICE crop damage, phytotoxicity rating (0-100 scale) ([12]; 250 g ai/ha): 40
- SOY crop damage, phytotoxicity rating (0-100 scale) ([13]; 125 g ai/ha): 50
- SOY crop damage, phytotoxicity rating (0-100 scale) ([13]; 250 g ai/ha): 65
- RICE crop damage, phytotoxicity rating (0-100 scale) ([14]; 125 g ai/ha): 99
- RICE crop damage, phytotoxicity rating (0-100 scale) ([14]; 250 g ai/ha): 99
- CORN crop damage, phytotoxicity rating (0-100 scale) ([15]; 125 g ai/ha): 50
- CORN crop damage, phytotoxicity rating (0-100 scale) ([15]; 250 g ai/ha): 65
- SOY crop damage, phytotoxicity rating (0-100 scale) ([16]; 125 g ai/ha): 90
- SOY crop damage, phytotoxicity rating (0-100 scale) ([16]; 250 g ai/ha): 100
- CASOB phytotoxicity rating (0-100 scale) ([17]; 125 g ai/ha): 100
- CASOB phytotoxicity rating (0-100 scale) ([17]; 250 g ai/ha): 100
- IPOHE phytotoxicity rating (0-100 scale) ([18]; 125 g ai/ha): 100
- IPOHE phytotoxicity rating (0-100 scale) ([18]; 250 g ai/ha): 100
- ECHCG phytotoxicity rating (0-100 scale) ([19]; 125 g ai/ha): 100
- ECHCG phytotoxicity rating (0-100 scale) ([19]; 250 g ai/ha): 100
- AMARE phytotoxicity rating (0-100 scale) ([20]; 125 g ai/ha): 100
- AMARE phytotoxicity rating (0-100 scale) ([20]; 250 g ai/ha): 100
- DIGSA phytotoxicity rating (0-100 scale) ([21]; 125 g ai/ha): 100
- DIGSA phytotoxicity rating (0-100 scale) ([21]; 250 g ai/ha): 100
- ABUTH phytotoxicity rating (0-100 scale) ([22]; 125 g ai/ha): 100
- ABUTH phytotoxicity rating (0-100 scale) ([22]; 250 g ai/ha): 100
- CHEAL phytotoxicity rating (0-100 scale) ([23]; 125 g ai/ha): 100
- CHEAL phytotoxicity rating (0-100 scale) ([23]; 250 g ai/ha): 100
- SORHA phytotoxicity rating (0-100 scale) ([24]; 125 g ai/ha): 100
- SORHA phytotoxicity rating (0-100 scale) ([24]; 250 g ai/ha): 100
- SETVI phytotoxicity rating (0-100 scale) ([25]; 125 g ai/ha): 100
- SETVI phytotoxicity rating (0-100 scale) ([25]; 250 g ai/ha): 100
- AMBEL phytotoxicity rating (0-100 scale) ([26]; 125 g ai/ha): 100
- AMBEL phytotoxicity rating (0-100 scale) ([26]; 250 g ai/ha): 100
